Where two headings read alike, the source gives them in different places.
Experiments:
HEWL amyloids [1] = molecular target: T1, HEWL amyloids (Gallus gallus, UniProt P00698); assay: Excitation and emission spectra of PEs with HEWL amyloids; format: binding, hen; conditions: PE 500 nM, HEWL amyloid 5 μM monomer basis
T1 construct: Lyophilized HEWL was dissolved at 10 mg/mL in 10 mM pH 3 sodium citrate buffer with 0.1 M NaCl; purchased Sigma-Aldrich; host or cells: hen egg white; fibrillised in house (pH 3, 70 °C, stirred)
T1 sequence (P00698 19-147): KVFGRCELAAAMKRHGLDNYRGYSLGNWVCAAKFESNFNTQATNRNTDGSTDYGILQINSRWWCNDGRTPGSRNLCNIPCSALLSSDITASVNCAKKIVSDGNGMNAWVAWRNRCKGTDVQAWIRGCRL
Protocol: Excitation and emission spectra of PEs in phosphate buffer alone, with monomeric HEWL and with HEWL amyloids (8 h incubated) are shown in FIGS. 18A-H, and relevant photophysical properties are summarized in Table 1. FIGS. 18A-H illustrate excitation (A, B, C, D) and emission (right; E, F, G. H) spectra of PEs (A, E: PE1+; B, F: PE1−; C, G: PE2+; D, H: PE3+) in phosphate buffer (PB, pH 7.4, 10 mM) alone (long dashed line) with HEWL monomers (short dashed line) and with HEWL amyloids (solid line); PE concentration: 500 nM, protein concentration: 5 μM monomer basis/0.25 mg/mL; emission and excitation wavelengths, respectively, were chosen as shown in Table 1 for each sample. A 10:1 molar ratio of protein to PE was used for these experiments. Absorbance spectra were taken, but background light scattering from insoluble amyloid aggregates made them difficult to interpret, so “fluorescence detected absorbance” in the form of excitation spectra was used instead. Normalized excitation and emission spectra, in which peak shifts and lineshape changes of spectra were somewhat easier to visualize, were used. […] PE1+ (FIG. 18E) had no change in wavelength or lineshape of emission spectrum, just a large increase in intensity when mixed with amyloids. The excitation spectra (FIGS. 18A, B, C, D) show a notable bathochromic shift for each PE in solution mixed with amyloid, of 23, 27, 35 and 29 nm for PE1+, PE2+, PE3+ and PE1−, respectively, observing only the low-energy band. The high-energy band, less relevant for imaging purposes, was also bathochromically shifted. […] PE1− had similar excitation spectrum (FIG. 18B) with monomer and amyloid, except for a large intensity difference.
Lyophilized HEWL was dissolved at 10 mg/mL in 10 mM pH 3 sodium citrate buffer with 0.1 M NaCl. The solution was incubated in a 70C oil bath and magnetically stirred at 250 rpm for 12 h, and aliquots were withdrawn at half-hour intervals. […] Half of each aliquot was immediately diluted into pH 7.4 phosphate buffer to prevent further influence of acidic conditions and stored at 4C.
(§1) For studies of fluorescence enhancement vs. protein incubation time, dyes were mixed with protein sample in phosphate buffer (10 mM, pH 7.4) at equal monomer concentration of 10 μM in the wells of a standard 96-well plate. Emission spectra were obtained using top read with a SpectraMax M2e plate-reading spectrophotometer (Molecular Devices, Sunnyvale, CA). Experiments were performed in duplicate and errors are reported as standard deviation. For analysis of bound PE excitation and emission spectra and protein-PE energy transfer, PEs (500 nM) were mixed with protein sample (5 μM, monomer basis) in phosphate buffer and the solution transferred to a quartz, fluorometry cuvette. Spectra were obtained on a PTI QuantaMaster 40 steady state spectrofluorometer (HORIBA Scientific, Edison, NJ).

HEWL amyloid = molecular target: T2, HEWL amyloid (Gallus gallus, UniProt P00698); assay: Binding saturation assay of PEs to HEWL amyloid (Hill fit); design: species or system hen; conditions: for Hill coeffi.: PE binding to HEWL amyloid
T2 construct: Lyophilized HEWL was dissolved at 10 mg/mL in 10 mM pH 3 sodium citrate buffer with 0.1 M NaCl; purchased Sigma-Aldrich; host or cells: hen egg white; fibrillised in house (pH 3, 70 °C, stirred)
T2 sequence (P00698 19-147): as above
Protocol: Next, binding saturation assays were conducted to quantify the affinity of PE-amyloid binding; data and fitted curves were produced and the fitted parameters are summarized in the last two columns of Table 1. Since the linear fibril binding sites could fit many PEs, fits to binding curves were performed to the Hill equation to capture possible binding cooperativity:
[formula] where x is PE concentration (with protein concentration fixed), y is PE fluorescence intensity. […] Fits to the data for the three cationic PEs produced Fmax values close to the observed saturation value, and the other two parameters are reported as calculated. […] Furthermore, the cooperativity of PE binding increased from almost no cooperativity for PE1+, to some positive cooperativity for PE2+, to still more positive cooperativity for PE3+. The quantitative physical meaning of the Hill parameter is not quite clear except in special cases, but in a general way it is possible to conclude that for the cationic PEs, the shortest PE has non-cooperative binding to HEWL amyloid (Michaelis-Menten binding), and the two longer PEs have increasingly positively cooperative binding. […] The effect of PE1− non-specific binding to HEWL monomers precluded accurate determination of a binding constant for PE1−/amyloid interactions such that a quantitative comparison of binding between the cationic and anionic compounds could not be made.
For determination of binding constant of PEs to amyloid aggregates, PEs were mixed with HEWL amyloid in phosphate buffer at a final concentration of 100 nM-5 μM for PEs and 5 μM (monomer basis) for protein. The solutions were then transferred to a quartz fluorometry cuvette and emission measured at the pertinent wavelength. Experiments were performed in duplicate and errors reported as standard deviation. Hill function fits to PE binding curves were calculated in OriginPro 9.

HEWL amyloids [2] = molecular target: T1, HEWL amyloids; assay: HEWL to PE Förster resonance energy transfer; format: binding, hen; conditions: excitation 280 nm
Excerpt: The results are summarized as FRET efficiencies in FIG. 20, illustrating HEWL ? PE FRET efficiencies calculated from spectral data by the equation E=FA/(FD+FA) where FD is the integrated area under the donor emission peak, and FA is the integrated area under the acceptor emission peak. This simple expression is valid for this case since the PEs are nonfluorescent when excited at the donor excitation wavelength, eliminating crosstalk. Thus, FA is the total number of energy transfer events, and (FA+FD) is the total number of excitation events. Theoretically, the efficiencies should be convertible into distances by
as §1, with “Spectra were obtained on a PTI QuantaMaster 40 steady state spectrofluorometer (HORIBA Scientific, Edison, NJ).” left out

[3] = in water; cited from earlier work
[4] = Absorbance/fluorescence spectroscopy and fluorescence quantum yield (comparative method) of PEs and PE/substrate aggregates; format: physicochemical

Compound	bathochromic shift of excitation spectrum, low-energy band, with amyloid (HEWL amyloids [1])	blueshifting of the fluorescence maximum with amyloid (HEWL amyloids [1])	λem (PB w/ HEWL) (HEWL amyloids [1])	λex (PB w/HEWL), high-energy band (HEWL amyloids [1])	λex (PB w/HEWL), low-energy band (HEWL amyloids [1])	Kd (HEWL amyloid)	Hill coeffi. (HEWL amyloid)	HEWL to PE FRET efficiency, relative (HEWL amyloids [2])	fluorescence quantum yield, previously reported value [3]	centre of structured emission upon aggregation with substrate ([4]; +2C with DLPG, −1C with LaCh)	fluorescence quantum yield of aggregate with DLPG ([4]; […] PE with 16 uM DLPG)	fluorescence enhancement on aggregation with DLPG ([4]; at 440 nm)	fluorescence quantum yield, PE alone ([4]; in water, corrected value of this study)	Kd (HEWL amyloid; HEWL amyloid, Hill fit, read-out: calculated dissociation constant)
CCOC(=O)c1ccc(C#Cc2cc(OCC[N+](C)(C)C)c(C#Cc3ccc(C#Cc4cc(OCC[N+](C)(C)C)c(C#Cc5ccc(C(=O)OCC)cc5)cc4OCC[N+](C)(C)C)cc3)cc2OCC[N+](C)(C)C)cc1 [PE2+]	27 nm	~10 nm	445 nm	337 nm	426 nm	1150 nM	1.15	highest efficiency	0.039	450 nm	0.63	39 times	≤ 0.016	
CCOC(=O)c1ccc(C#Cc2cc(OCC[N+](C)(C)C)c(C#Cc3ccc(C#Cc4cc(OCC[N+](C)(C)C)c(C#Cc5ccc(C#Cc6cc(OCC[N+](C)(C)C)c(C#Cc7ccc(C(=O)OCC)cc7)cc6OCC[N+](C)(C)C)cc5)cc4OCC[N+](C)(C)C)cc3)cc2OCC[N+](C)(C)C)cc1 [PE3+]	35 nm	~10 nm	453 nm	335 nm	434 nm		1.89							858 nM

Reference: patent US12163953B2, “P-phenylene ethynylene compounds as bioactive and detection agents” (STC.UNM, priority 2014, dated 2024)
